Columns and labels:
Experiment in all cases: KINOMEscan
Assay type in all cases: binding
Details in all cases: read-out: % control activity remaining
EPHA4 = molecular target: T1, EPHA4 (Homo sapiens, UniProt P54764)
T1 construct: purchased Eurofins DiscoverX KINOMEscan

EPHA7 = molecular target: T2, EPHA7 (Homo sapiens, UniProt Q15375)
T2 construct: purchased Eurofins DiscoverX KINOMEscan

DYRK1A = molecular target: T3, DYRK1A (Homo sapiens, UniProt Q13627)
T3 construct: purchased Eurofins DiscoverX KINOMEscan

[1] = molecular target: T4, RSK1(Kin.Dom.2-C-terminal) (Homo sapiens, UniProt Q15418)
T4 construct: RSK1(Kin.Dom.2-C-terminal); purchased Eurofins DiscoverX KINOMEscan

MET(Y1235D) = molecular target: T5, MET(Y1235D) (Homo sapiens, UniProt P08581, Y1235D)
T5 construct: purchased Eurofins DiscoverX KINOMEscan

TAOK1 = molecular target: T6, TAOK1 (Homo sapiens, UniProt Q7L7X3)
T6 construct: purchased Eurofins DiscoverX KINOMEscan
T6 sequence (Q7L7X3 1-1001): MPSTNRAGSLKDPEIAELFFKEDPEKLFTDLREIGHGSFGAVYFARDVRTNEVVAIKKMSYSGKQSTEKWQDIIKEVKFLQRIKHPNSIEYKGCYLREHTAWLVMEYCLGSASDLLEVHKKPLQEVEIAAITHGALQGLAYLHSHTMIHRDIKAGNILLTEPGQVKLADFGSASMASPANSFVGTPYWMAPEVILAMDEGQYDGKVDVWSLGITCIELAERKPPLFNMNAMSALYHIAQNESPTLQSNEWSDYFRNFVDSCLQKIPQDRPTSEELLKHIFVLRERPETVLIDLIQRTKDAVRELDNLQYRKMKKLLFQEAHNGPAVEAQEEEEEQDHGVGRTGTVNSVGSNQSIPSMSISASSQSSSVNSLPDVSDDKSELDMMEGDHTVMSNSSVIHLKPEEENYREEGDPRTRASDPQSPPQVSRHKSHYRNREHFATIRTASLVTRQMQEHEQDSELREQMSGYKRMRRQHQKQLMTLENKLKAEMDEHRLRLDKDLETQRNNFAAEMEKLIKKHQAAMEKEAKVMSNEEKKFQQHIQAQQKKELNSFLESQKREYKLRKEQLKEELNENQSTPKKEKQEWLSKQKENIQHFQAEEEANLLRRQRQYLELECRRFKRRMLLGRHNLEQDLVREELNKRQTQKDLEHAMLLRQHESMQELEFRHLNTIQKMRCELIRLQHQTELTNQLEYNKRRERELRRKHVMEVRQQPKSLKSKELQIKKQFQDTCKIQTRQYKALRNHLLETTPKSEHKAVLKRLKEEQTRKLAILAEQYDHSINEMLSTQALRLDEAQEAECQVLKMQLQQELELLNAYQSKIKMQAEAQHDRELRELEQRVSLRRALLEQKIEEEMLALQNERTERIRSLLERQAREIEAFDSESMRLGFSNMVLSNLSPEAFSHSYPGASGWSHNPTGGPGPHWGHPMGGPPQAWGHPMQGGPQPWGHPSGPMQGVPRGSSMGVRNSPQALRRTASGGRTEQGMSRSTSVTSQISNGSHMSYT

LRRK2(G2019S) = molecular target: T7, LRRK2(G2019S) (Homo sapiens, UniProt Q5S007, G2019S)
T7 construct: purchased Eurofins DiscoverX KINOMEscan

STK16 = molecular target: T8, STK16 (Homo sapiens, UniProt O75716)
T8 construct: purchased Eurofins DiscoverX KINOMEscan

[2] = molecular target: T9, TYK2(JH1domain-catalytic) (Homo sapiens, UniProt P29597)
T9 construct: TYK2(JH1domain-catalytic); purchased Eurofins DiscoverX KINOMEscan
T9 sequence (P29597 871-1187 limits assumed): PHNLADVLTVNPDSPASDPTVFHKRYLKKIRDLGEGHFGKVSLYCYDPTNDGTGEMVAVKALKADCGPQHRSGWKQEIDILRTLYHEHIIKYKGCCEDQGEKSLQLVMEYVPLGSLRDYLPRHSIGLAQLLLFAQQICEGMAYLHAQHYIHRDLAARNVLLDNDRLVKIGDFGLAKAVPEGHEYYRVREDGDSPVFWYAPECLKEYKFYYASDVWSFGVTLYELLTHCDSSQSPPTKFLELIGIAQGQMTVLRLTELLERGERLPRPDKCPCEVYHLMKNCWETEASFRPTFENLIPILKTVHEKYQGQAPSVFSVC

RET(M918T) = molecular target: T10, RET(M918T) (Homo sapiens, UniProt P07949, M918T)
T10 construct: purchased Eurofins DiscoverX KINOMEscan

STK35 = molecular target: T11, STK35 (Homo sapiens, UniProt Q8TDR2)
T11 construct: purchased Eurofins DiscoverX KINOMEscan

FGFR3(G697C) = molecular target: T12, FGFR3(G697C) (Homo sapiens, UniProt P22607, G697C)
T12 construct: purchased Eurofins DiscoverX KINOMEscan

MUSK = molecular target: T13, MUSK (Homo sapiens, UniProt O15146)
T13 construct: purchased Eurofins DiscoverX KINOMEscan
T13 sequence (O15146 24-869): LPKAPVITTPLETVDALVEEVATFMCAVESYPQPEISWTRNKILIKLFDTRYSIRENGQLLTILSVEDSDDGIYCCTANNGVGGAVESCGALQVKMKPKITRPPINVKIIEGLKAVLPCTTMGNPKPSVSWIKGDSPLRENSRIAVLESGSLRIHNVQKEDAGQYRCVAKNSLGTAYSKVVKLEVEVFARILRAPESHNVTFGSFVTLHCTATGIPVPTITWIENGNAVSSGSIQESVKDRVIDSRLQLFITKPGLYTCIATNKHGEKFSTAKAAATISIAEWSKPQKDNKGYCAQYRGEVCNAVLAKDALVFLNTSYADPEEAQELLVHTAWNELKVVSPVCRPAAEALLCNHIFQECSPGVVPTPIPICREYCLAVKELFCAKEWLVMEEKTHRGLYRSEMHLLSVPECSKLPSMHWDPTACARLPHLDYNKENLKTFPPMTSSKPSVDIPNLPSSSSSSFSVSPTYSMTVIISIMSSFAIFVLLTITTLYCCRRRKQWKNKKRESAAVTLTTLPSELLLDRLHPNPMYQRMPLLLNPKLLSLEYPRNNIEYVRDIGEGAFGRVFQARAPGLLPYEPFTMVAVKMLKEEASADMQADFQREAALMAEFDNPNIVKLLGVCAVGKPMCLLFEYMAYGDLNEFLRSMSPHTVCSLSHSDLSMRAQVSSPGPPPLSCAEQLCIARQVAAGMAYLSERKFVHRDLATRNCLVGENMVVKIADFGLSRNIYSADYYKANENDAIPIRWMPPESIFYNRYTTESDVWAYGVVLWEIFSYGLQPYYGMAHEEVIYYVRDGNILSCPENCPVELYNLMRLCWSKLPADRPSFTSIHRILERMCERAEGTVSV

MRCKA = molecular target: T14, MRCKA (Homo sapiens, UniProt Q5VT25)
T14 construct: purchased Eurofins DiscoverX KINOMEscan
T14 sequence (Q5VT25 whole entry): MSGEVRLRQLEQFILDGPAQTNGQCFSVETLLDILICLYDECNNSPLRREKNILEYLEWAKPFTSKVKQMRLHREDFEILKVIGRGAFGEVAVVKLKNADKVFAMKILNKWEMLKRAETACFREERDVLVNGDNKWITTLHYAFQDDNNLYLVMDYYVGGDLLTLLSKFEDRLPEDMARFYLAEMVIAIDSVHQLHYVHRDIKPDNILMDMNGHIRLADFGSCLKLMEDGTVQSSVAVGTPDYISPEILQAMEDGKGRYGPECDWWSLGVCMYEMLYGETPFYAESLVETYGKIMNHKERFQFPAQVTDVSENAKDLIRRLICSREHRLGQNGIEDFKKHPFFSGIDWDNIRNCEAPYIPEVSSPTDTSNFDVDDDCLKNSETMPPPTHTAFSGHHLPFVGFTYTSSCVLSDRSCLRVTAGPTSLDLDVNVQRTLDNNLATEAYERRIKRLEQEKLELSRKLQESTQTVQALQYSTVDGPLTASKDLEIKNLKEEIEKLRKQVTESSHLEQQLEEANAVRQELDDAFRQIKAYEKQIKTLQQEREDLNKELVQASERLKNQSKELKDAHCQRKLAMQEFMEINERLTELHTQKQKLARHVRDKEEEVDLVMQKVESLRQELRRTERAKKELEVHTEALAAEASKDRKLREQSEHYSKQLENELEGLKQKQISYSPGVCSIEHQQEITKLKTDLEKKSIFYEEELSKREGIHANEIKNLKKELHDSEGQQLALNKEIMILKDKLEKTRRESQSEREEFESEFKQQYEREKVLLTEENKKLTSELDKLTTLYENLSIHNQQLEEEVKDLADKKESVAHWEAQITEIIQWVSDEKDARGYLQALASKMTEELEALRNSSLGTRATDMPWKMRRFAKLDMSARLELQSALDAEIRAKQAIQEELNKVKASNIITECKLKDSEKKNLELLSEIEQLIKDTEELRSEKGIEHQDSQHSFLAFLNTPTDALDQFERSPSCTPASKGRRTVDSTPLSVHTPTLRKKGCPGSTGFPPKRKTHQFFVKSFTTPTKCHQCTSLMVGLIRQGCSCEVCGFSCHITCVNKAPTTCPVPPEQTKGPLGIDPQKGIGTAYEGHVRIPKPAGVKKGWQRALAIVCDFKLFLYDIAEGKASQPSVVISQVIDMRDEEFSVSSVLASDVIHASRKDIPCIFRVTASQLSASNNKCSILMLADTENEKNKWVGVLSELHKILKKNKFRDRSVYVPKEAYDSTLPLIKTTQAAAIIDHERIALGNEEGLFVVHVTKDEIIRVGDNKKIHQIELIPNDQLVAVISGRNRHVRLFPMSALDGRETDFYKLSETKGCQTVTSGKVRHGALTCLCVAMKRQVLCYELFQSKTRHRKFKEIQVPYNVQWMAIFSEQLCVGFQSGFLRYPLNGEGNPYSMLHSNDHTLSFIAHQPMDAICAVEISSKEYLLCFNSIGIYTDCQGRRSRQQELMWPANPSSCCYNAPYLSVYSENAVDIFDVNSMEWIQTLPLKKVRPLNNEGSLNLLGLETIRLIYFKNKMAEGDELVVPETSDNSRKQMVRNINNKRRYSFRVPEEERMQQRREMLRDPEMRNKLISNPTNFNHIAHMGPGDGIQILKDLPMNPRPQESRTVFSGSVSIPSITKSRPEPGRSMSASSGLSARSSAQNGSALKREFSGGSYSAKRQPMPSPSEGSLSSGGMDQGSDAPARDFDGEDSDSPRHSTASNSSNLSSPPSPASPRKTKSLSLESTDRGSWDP

T11 sequence (Q8TDR2 whole entry): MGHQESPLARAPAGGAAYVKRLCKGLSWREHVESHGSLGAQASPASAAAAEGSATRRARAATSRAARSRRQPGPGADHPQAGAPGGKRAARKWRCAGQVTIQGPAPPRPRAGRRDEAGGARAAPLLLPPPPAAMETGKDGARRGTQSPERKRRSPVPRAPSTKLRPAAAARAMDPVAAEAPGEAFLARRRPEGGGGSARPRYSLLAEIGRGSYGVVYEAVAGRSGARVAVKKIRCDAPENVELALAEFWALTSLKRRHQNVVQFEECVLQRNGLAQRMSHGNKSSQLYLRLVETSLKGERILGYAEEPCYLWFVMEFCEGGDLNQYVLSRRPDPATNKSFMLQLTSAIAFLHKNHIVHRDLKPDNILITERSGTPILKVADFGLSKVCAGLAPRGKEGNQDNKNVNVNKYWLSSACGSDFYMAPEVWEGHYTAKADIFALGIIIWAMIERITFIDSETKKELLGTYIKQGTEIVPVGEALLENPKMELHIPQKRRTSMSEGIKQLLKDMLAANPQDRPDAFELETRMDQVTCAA
T12 sequence (P22607 23-806 G697C): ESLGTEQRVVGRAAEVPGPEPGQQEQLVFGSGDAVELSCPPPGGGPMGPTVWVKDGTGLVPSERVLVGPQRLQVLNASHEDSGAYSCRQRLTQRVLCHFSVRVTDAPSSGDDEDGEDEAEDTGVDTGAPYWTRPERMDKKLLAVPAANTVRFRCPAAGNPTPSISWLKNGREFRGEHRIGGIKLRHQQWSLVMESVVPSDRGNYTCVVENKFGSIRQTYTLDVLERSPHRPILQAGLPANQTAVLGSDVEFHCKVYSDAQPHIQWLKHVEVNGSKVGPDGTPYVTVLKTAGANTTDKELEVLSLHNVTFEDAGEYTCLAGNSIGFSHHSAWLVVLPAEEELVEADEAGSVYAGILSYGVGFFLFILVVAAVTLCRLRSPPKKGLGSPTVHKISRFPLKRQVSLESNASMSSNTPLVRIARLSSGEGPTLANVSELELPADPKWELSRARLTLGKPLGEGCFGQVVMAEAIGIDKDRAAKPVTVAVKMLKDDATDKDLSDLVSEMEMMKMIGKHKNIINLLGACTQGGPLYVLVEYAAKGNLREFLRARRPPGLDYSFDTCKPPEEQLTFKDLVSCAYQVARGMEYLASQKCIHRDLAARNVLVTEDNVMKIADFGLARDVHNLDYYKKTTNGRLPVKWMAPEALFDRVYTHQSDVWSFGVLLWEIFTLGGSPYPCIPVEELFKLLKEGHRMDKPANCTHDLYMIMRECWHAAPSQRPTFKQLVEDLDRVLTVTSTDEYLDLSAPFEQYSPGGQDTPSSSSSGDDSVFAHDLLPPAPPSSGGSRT
T2 sequence (Q15375 28-998): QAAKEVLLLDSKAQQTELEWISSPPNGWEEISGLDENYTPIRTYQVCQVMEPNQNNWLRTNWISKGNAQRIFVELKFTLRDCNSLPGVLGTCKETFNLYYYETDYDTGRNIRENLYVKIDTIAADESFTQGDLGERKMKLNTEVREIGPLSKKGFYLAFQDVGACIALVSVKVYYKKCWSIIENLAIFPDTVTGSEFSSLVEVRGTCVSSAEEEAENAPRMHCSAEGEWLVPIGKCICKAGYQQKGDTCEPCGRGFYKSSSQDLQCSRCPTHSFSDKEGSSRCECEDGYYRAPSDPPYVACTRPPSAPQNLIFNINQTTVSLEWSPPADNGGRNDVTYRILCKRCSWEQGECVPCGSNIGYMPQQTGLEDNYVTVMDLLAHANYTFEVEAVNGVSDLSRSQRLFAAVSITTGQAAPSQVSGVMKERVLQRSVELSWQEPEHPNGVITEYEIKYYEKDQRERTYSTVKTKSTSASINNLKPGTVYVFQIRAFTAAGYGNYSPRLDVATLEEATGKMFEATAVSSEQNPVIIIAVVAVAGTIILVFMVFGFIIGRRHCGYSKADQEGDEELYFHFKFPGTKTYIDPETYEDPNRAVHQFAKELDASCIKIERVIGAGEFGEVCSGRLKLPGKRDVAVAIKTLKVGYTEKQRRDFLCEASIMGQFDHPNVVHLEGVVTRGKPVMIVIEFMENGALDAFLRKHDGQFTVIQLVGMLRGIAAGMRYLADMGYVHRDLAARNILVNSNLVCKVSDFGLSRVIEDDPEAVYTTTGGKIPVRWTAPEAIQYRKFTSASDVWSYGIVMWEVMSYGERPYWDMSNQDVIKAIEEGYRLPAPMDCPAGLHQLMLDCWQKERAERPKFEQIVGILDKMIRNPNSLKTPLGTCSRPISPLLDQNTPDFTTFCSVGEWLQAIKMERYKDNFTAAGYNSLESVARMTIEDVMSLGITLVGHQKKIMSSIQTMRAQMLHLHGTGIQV
T10 sequence (P07949 29-1114 M918T): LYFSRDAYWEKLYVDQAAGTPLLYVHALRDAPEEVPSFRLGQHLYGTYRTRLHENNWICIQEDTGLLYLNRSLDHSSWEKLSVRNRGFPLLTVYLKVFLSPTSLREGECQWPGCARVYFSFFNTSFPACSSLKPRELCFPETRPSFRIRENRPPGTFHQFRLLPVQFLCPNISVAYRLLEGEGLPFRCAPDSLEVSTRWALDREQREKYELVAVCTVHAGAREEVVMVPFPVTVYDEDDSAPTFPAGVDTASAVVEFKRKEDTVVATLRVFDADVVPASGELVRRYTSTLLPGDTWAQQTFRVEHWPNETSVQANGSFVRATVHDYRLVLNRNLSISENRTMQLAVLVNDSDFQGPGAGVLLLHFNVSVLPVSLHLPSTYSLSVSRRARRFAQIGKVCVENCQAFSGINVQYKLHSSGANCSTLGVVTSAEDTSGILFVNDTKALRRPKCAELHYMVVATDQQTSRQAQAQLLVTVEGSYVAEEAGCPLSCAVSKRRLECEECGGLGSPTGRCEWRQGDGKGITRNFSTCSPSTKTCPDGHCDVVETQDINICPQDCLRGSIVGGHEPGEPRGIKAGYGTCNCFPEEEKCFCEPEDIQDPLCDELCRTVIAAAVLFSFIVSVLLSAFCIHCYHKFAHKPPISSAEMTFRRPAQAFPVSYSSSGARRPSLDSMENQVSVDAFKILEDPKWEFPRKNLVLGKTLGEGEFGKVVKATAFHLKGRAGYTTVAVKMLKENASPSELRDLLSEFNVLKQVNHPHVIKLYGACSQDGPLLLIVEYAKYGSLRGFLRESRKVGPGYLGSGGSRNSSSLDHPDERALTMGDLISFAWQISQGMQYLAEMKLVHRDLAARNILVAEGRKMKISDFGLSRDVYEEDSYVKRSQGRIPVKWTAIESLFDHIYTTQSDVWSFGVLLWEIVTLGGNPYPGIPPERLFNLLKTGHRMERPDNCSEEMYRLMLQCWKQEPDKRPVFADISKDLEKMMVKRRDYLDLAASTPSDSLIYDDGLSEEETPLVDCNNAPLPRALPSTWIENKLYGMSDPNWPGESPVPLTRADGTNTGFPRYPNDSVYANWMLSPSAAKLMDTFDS

## Clc1cc(NCC2CC2)c2ncc(-c3ccc4[nH]ncc4c3)n2n1 [compound 2, 6-Chloro-N-(cyclopropylmethyl)-3-(1H-indazol-5-yl)imidazo[1,2-b]pyridazin-8-amine]
EPHA4
  remaining binding at 1 µM: 84%
EPHA7
  remaining binding at 1 µM: 94%
DYRK1A
  remaining binding at 1 µM: 5.1%
[1]
  remaining binding at 1 µM: 83%
MET(Y1235D)
  remaining binding at 1 µM: 100%
TAOK1
  remaining binding at 1 µM: 93%
LRRK2(G2019S)
  remaining binding at 1 µM: 91%
STK16
  remaining binding at 1 µM: 100%
[2]
  remaining binding at 1 µM: 87%
RET(M918T)
  remaining binding at 1 µM: 100%
STK35
  remaining binding at 1 µM: 77%
FGFR3(G697C)
  remaining binding at 1 µM: 78%
MUSK
  remaining binding at 1 µM: 72%
MRCKA
  remaining binding at 1 µM: 90%

## O=C(CN1CCOCC1)N[C@H]1CC[C@H](Nc2cc(Cl)nn3c(-c4ccc5[nH]ncc5c4)cnc23)CC1 [compound 26]
EPHA4
  remaining binding at 1 µM: 99%
EPHA7
  remaining binding at 1 µM: 97%
DYRK1A
  remaining binding at 1 µM: 0.35%
[1]
  remaining binding at 1 µM: 59%
MET(Y1235D)
  remaining binding at 1 µM: 97%
TAOK1
  remaining binding at 1 µM: 85%
LRRK2(G2019S)
  remaining binding at 1 µM: 76%
STK16
  remaining binding at 1 µM: 83%
[2]
  remaining binding at 1 µM: 100%
RET(M918T)
  remaining binding at 1 µM: 92%
STK35
  remaining binding at 1 µM: 97%
FGFR3(G697C)
  remaining binding at 1 µM: 85%
MUSK
  remaining binding at 1 µM: 42%
MRCKA
  remaining binding at 1 µM: 82%

## CN1CCC(CNc2cc(Cl)nn3c(-c4cc5nc(Nc6ccccc6)[nH]c5cc4F)cnc23)CC1 [compound 31, 6-Chloro-3-(6-fluoro-2-(phenylamino)-1H-benzo[d]imidazol-5-yl)-N-((1-methylpiperidin-4-yl)methyl)imidazo[1,2-b]pyridazin-8-amine]
EPHA4
  remaining binding at 1 µM: 100%
EPHA7
  remaining binding at 1 µM: 94%
DYRK1A
  remaining binding at 1 µM: 71%
[1]
  remaining binding at 1 µM: 96%
MET(Y1235D)
  remaining binding at 1 µM: 99%
TAOK1
  remaining binding at 1 µM: 75%
LRRK2(G2019S)
  remaining binding at 1 µM: 88%
STK16
  remaining binding at 1 µM: 96%
[2]
  remaining binding at 1 µM: 74%
RET(M918T)
  remaining binding at 1 µM: 80%
STK35
  remaining binding at 1 µM: 100%
FGFR3(G697C)
  remaining binding at 1 µM: 91%
MUSK
  remaining binding at 1 µM: 40%
MRCKA
  remaining binding at 1 µM: 97%

— PMC6437697 (Journal of Medicinal Chemistry, 2019)
